# Measurements reported in US20110105623A1 (Biogenic Innovations, LLC, priority 2009, published 2011).
# Where “and” joins values, the source holds several entries; their conditions need not be identical. Equal entries are not always repeated.
# Tested on: Lactobacillus acidophilus
# Experiment: Recovery from Acidophilus milk fortified with MSM into broth without MSM
# Type: cell-based
# Details: for Lag Recovery of Lactobacillus acidophilus in Milk fortified with MSM Day 28: duplicates
# Experimental: The Acidophilus milk was low fat (Darigold). […] All preparations and plating was conducted at room temperature.
# The recovery study was run parallel to the study done on the affects of MSM on growth of Lactobacillus acidophilus in Acidophilus milk fortified with MSM. The recovery growth rate was analyzed on Day 7, Day 14, Day 21 and Day 28. For Table 27, the growth for Day x with no time is calculated from the initial growth study with the dilution factor into the log growth. […] Table 28 takes the value of 2.00 as the starting value.
substance,measurement,setting,value
Methylsulfonylmethane [MSM],"Recovery of Lactobacillus acidophilus in Milk fortified with MSM Day 21, average recovery","5.0% MSM, Day 21-24",9.69 logs
same,"Recovery of Lactobacillus acidophilus in Milk fortified with MSM Day 21, average recovery","5.0% MSM, Day 21-48",13.08 logs
same,"Recovery of Lactobacillus acidophilus in Milk fortified with MSM Day 21, average recovery","5.0% MSM, Day 21-72",13.15 logs
same,"Recovery of Lactobacillus acidophilus in Milk fortified with MSM Day 28, initial start data",5.0% MSM,0.52 logs
same,"Recovery of Lactobacillus acidophilus in Milk fortified with MSM Day 28, average recovery","5.0% MSM, Day 28-24",5.56 logs
same,Lag Recovery of Lactobacillus acidophilus in Milk fortified with MSM Day 28,"5.0% MSM, Day 28-24",5.64 logs and 5.48 logs
same,"Recovery of Lactobacillus acidophilus in Milk fortified with MSM Day 28, average recovery","5.0% MSM, Day 28-48",12.87 logs
same,Lag Recovery of Lactobacillus acidophilus in Milk fortified with MSM Day 28,"5.0% MSM, Day 28-48",12.58 logs and 13.16 logs
same,"Recovery of Lactobacillus acidophilus in Milk fortified with MSM Day 28, average recovery","5.0% MSM, Day 28-72",12.48 logs
same,Lag Recovery of Lactobacillus acidophilus in Milk fortified with MSM Day 28,"5.0% MSM, Day 28-72",12.49 logs and 12.47 logs
same,Day 7 log recovery growth rate increase from start time of zero,"5.0% MSM, Hour 0",0.00 logs
same,Day 14 log recovery growth rate increase from start time of zero,"5.0% MSM, Hour 0",0.00 logs
same,Day 21 log recovery growth rate increase from start time of zero,"5.0% MSM, Hour 0",0.00 logs
same,Day 7 log recovery growth rate increase from start time of zero,"5.0% MSM, Hour 24",4.00 logs
same,Day 14 log recovery growth rate increase from start time of zero,"5.0% MSM, Hour 24",3.56 logs
same,Day 21 log recovery growth rate increase from start time of zero,"5.0% MSM, Hour 24",6.13 logs
same,Day 7 log recovery growth rate increase from start time of zero,"5.0% MSM, Hour 48",0.47 logs
same,Day 14 log recovery growth rate increase from start time of zero,"5.0% MSM, Hour 48",3.42 logs
same,Day 21 log recovery growth rate increase from start time of zero,"5.0% MSM, Hour 48",3.39 logs
same,Day 7 log recovery growth rate increase from start time of zero,"5.0% MSM, Hour 72",−0.19 logs
same,Day 14 log recovery growth rate increase from start time of zero,"5.0% MSM, Hour 72",−0.59 logs
same,Day 21 log recovery growth rate increase from start time of zero,"5.0% MSM, Hour 72",0.08 logs
same,Day 28 log recovery growth rate increase from start time of zero,"5.0% MSM, Time 0",0.00 logs
same,Day 28 log recovery growth rate increase from start time of zero,"5.0% MSM, Time 24",5.04 logs
same,Day 28 log recovery growth rate increase from start time of zero,"5.0% MSM, Time 48",7.31 logs
same,Day 28 log recovery growth rate increase from start time of zero,"5.0% MSM, Time 72",−0.39 logs
same,"Recovery of Lactobacillus acidophilus in Milk fortified with MSM Day 7, initial start data","[…] MSM, Day 7",8.50 logs
same,"Recovery of Lactobacillus acidophilus in Milk fortified with MSM Day 7, average recovery","[…] MSM, Day 7-24",13.16 logs
same,"Recovery of Lactobacillus acidophilus in Milk fortified with MSM Day 7, average recovery","[…] MSM, Day 7-48",12.36 logs
same,"Recovery of Lactobacillus acidophilus in Milk fortified with MSM Day 7, average recovery","[…] MSM, Day 7-72",12.60 logs
same,"Recovery of Lactobacillus acidophilus in Milk fortified with MSM Day 14, initial start data","[…] MSM, Day 14-0",5.33 logs
same,"Recovery of Lactobacillus acidophilus in Milk fortified with MSM Day 14, average recovery","[…] MSM, Day 14-24",9.87 logs
same,"Recovery of Lactobacillus acidophilus in Milk fortified with MSM Day 14, average recovery","[…] MSM, Day 14-48",12.32 logs
same,"Recovery of Lactobacillus acidophilus in Milk fortified with MSM Day 14, average recovery","[…] MSM, Day 14-72",12.57 logs
same,"Recovery of Lactobacillus acidophilus in Milk fortified with MSM Day 21, initial start data","[…] MSM, Day 21",3.47 logs
same,"Recovery of Lactobacillus acidophilus in Milk fortified with MSM Day 21, average recovery","[…] MSM, Day 21-24",10.79 logs
same,"Recovery of Lactobacillus acidophilus in Milk fortified with MSM Day 21, average recovery","[…] MSM, Day 21-48",12.78 logs
same,"Recovery of Lactobacillus acidophilus in Milk fortified with MSM Day 21, average recovery","[…] MSM, Day 21-72",13.10 logs
same,"Recovery of Lactobacillus acidophilus in Milk fortified with MSM Day 28, initial start data",[…] MSM,1.33 logs
same,"Recovery of Lactobacillus acidophilus in Milk fortified with MSM Day 28, average recovery","[…] MSM, Day 28-24",6.37 logs
same,Lag Recovery of Lactobacillus acidophilus in Milk fortified with MSM Day 28,"[…] MSM, Day 28-24",6.37 logs
same,"Recovery of Lactobacillus acidophilus in Milk fortified with MSM Day 28, average recovery","[…] MSM, Day 28-48",12.57 logs
same,"Recovery of Lactobacillus acidophilus in Milk fortified with MSM Day 28, average recovery","[…] MSM, Day 28-72",12.66 logs
same,Day 7 log recovery growth rate increase from start time of zero,"[…] MSM, Hour 0",0.00 logs
same,Day 14 log recovery growth rate increase from start time of zero,"[…] MSM, Hour 0",0.00 logs
same,Day 21 log recovery growth rate increase from start time of zero,"[…] MSM, Hour 0",0.00 logs
same,Day 7 log recovery growth rate increase from start time of zero,"[…] MSM, Hour 24",4.66 logs
same,Day 14 log recovery growth rate increase from start time of zero,"[…] MSM, Hour 24",4.54 logs
same,Day 21 log recovery growth rate increase from start time of zero,"[…] MSM, Hour 24",7.32 logs
same,Day 7 log recovery growth rate increase from start time of zero,"[…] MSM, Hour 48",−0.8 logs
same,Day 14 log recovery growth rate increase from start time of zero,"[…] MSM, Hour 48",2.45 logs
same,Day 21 log recovery growth rate increase from start time of zero,"[…] MSM, Hour 48",2.00 logs
same,Day 7 log recovery growth rate increase from start time of zero,"[…] MSM, Hour 72",0.25 logs
same,Day 14 log recovery growth rate increase from start time of zero,"[…] MSM, Hour 72",0.26 logs
same,Day 21 log recovery growth rate increase from start time of zero,"[…] MSM, Hour 72",0.32 logs
same,Day 28 log recovery growth rate increase from start time of zero,"[…] MSM, Time 0",0.00 logs
same,Day 28 log recovery growth rate increase from start time of zero,"[…] MSM, Time 24",5.04 logs
same,Day 28 log recovery growth rate increase from start time of zero,"[…] MSM, Time 48",6.20 logs
same,Day 28 log recovery growth rate increase from start time of zero,"[…] MSM, Time 72",0.09 logs
